The subject of experiment [1] is HT-1080. Nature of the experiment: Induction of ferroptosis in human HT-1080 cells assessed as reduction in cell viability incubated for 24 hrs in presence of Fer-1 by CCK-8 assay. Conditions: HT-1080, 24 h. (Tetrazolium dyes change colour on reduction, which living cells bring about.)
Experiment [2] concerns HT-1080. In words: Induction of ferroptosis in human HT-1080 cells assessed as increase in cellular LPO level at 0.1 uM incubated for 3 hrs by BIODPY-C11 probe based flow cytometry analysis. The class given is functional, cell-based.
Experiment [3] relates to HT-1080. In words: Induction of ferroptosis in human HT-1080 cells assessed as increase in cellular MDA level at 0.1 uM incubated for 6 hrs. The experiment is classed as functional, cell-based.
Experiment [4] can be described thus: Selectivity index, ratio of IC50 for cytotoxicity against human HT-1080 cells assessed as cell viability incubated for 24 hrs by CCK-8 assay to IC50 for induction of ferroptosis in human HT-1080 cells assessed as reduction in cell viability incubated for 24 hrs […] by CCK-8 assay. The class given is functional.
Experiment [5] deals with HT-1080. Nature of the experiment: Cytotoxicity against human HT-1080 cells assessed as cell viability incubated for 24 hrs by CCK-8 assay. Conditions: HT-1080, 24 h.
For experiment [6], the target named is T1, Phospholipid hydroperoxide glutathione peroxidase GPX4 (Homo sapiens, UniProt P36969).
T1 sequence (P36969 whole entry): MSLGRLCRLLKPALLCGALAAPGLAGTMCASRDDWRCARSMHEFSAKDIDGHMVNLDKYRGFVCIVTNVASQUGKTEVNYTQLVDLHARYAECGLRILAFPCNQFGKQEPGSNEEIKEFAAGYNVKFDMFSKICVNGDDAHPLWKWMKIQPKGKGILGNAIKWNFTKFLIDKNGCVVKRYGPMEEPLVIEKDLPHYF
Nature of the experiment: Binding affinity to human GPX4 assessed as dissociation constant by MST assay.

Experiment [7] has as its system HT-1080. In words: Induction of morphological changes in human HT-1080 cells assessed as […] of mitochondria cristas by TEM analysis. The experiment is classed as functional, cell-based.
For experiment [8], the system named is HT-1080. Nature of the experiment: Induction of morphological changes in human HT-1080 cells assessed as appearance of round shaped mitochondria by TEM analysis. The experiment is classed as functional, cell-based.
For experiment [9], the system named is HT-1080. In words: Induction of ferroptosis in human HT-1080 cells assessed as increase in cellular ROS level at 0.1 uM incubated for 3 hrs by DCFH-DA staining based flow cytometry analysis. The class given is functional, cell-based. A general note: In flow cytometry, cells or beads pass a laser one at a time.
Experiment [10] relates to HT-1080. Nature of the experiment: Induction of ferroptosis in human HT-1080 cells assessed as increase in cellular ROS level at 0.5 uM incubated for 3 hrs by DCFH-DA staining based flow cytometry analysis. The experiment is classed as functional, cell-based.
For experiment [11], the system named is HT-1080. In words: Induction of ferroptosis in human HT-1080 cells assessed as increase in cellular LPO level at 0.5 uM incubated for 3 hrs by BIODPY-C11 probe based flow cytometry analysis. The experiment is classed as functional, cell-based.

These results are taken from ChEMBL document CHEMBL6096736, “Development of a Highly Selective Ferroptosis Inducer Targeting GPX4 with 2-Ethynylthiazole-4-carboxamide as Electrophilic Warhead” (J Med Chem, 2025).

Activity calls are given as the source filed them. The calls are words filed in the database; no cut-off is given here. A value given as a limit tells only on which side of the number the result lay.

Broadly, the IC50 is the midpoint of a concentration-inhibition curve. As a reminder, the Kd is the equilibrium constant for the complex coming apart. `O=C(NCCc1ccccc1)C(c1csc2ccccc12)N(C(=O)CCl)c1ccc(-c2cnco2)cc1` (stereo not given): the IC50 is 4600 nM in the experiment on HT-1080 [1] and 121 nM with HT-1080 [5]. The outcome with HT-1080 [2], with HT-1080 [3], in the experiment with HT-1080 [7], with HT-1080 [8] and in the experiment on HT-1080 [9] was Active. Besides, the “Ratio IC50” value in [4] worked out at 38. Further, the Kd in experiment [6] was 24.7 nM.
For `C#Cc1nc(C(=O)N(c2ccc(-c3cnco3)cc2)C(C(=O)NC(C)(C)C)c2c[nH]c3ccccc23)cs1` (stereo not given), the IC50 in the experiment with HT-1080 [1] was determined as 8420 nM; with HT-1080 [5], 98 nM. The “Ratio IC50” value in experiment [4] was found to be 86.
Taken in the same sequence, the figures for `C#Cc1nc(C(=O)N(c2ccc(-c3cnco3)cc2)C(C(=O)NCc2ccccc2)c2csc3ccccc23)cs1` (stereo not given) were 6120 nM, 32 nM and 191.
As to `O=C(NCCc1ccccc1)C(c1csc2ccccc12)N(C(=O)c1cc([N+](=O)[O-])[nH]n1)c1ccc(-c2cnco2)cc1` (stereo not given), the IC50 in the experiment on HT-1080 [5] was over 5000 nM.
Consider `C#Cc1nc(C(=O)N(c2ccc(-c3cnco3)cc2)C(C(=O)NC(C)(C)C)c2c[nH]cn2)cs1` (stereo not given), for which the IC50 in the experiment on HT-1080 [1] is 6140 nM; in the experiment on HT-1080 [5] it was 459 nM. Besides, in experiment [4], the “Ratio IC50” value is recorded as 13.
`Cc1onc(C(=O)N(c2ccc(-c3cnco3)cc2)C(C(=O)NCCc2ccccc2)c2csc3ccccc23)c1[N+](=O)[O-]` (stereo not given): the IC50 in the experiment with HT-1080 [5] was over 5000 nM.
With `C#Cc1nc(C(=O)N(c2ccc(-c3cnco3)cc2)C(C(=O)NCCc2ccccc2)c2csc3ccccc23)cs1` (stereo not given), the half-inhibitory concentration (IC50) turned out to be 9030 nM in the experiment with HT-1080 [1] and 21 nM in the experiment with HT-1080 [5]. For the same molecule, the “Ratio IC50” value in experiment [4] came out at 430.
On the same counts, the results for `C#Cc1nc(C(=O)N(c2ccc(-c3cnco3)cc2)C(C(=O)NC(C)(C)C)c2ccc[nH]2)cs1` (stereo not given) are 7410 nM, 120 nM and 61.7.
For `C#Cc1nc(C(=O)N(c2ccc(-c3cnco3)cc2)[C@H](C(=O)NC(C)(C)C)c2csc3ccccc23)cs1`, the IC50 in the experiment on HT-1080 [1] was determined as 11700 nM; in the experiment on HT-1080 [5], 12 nM.
Turning to `C#Cc1nc(C(=O)N(c2ccc(-n3ccnc3)cc2)C(C(=O)NC(C)(C)C)c2csc3ccccc23)cs1` (stereo not given), the half-maximal inhibitory concentration (IC50) in the experiment on HT-1080 [1] came out at 4760 nM; with HT-1080 [5] it was 345 nM. Also, the “Ratio IC50” value in experiment [4] is 14.
On the same counts, the results for `C#Cc1nc(C(=O)N(c2ccc(-c3cnco3)cc2)C(C(=O)NC(C)(C)C)c2ccncn2)cs1` (stereo not given) are 8160 nM, 354 nM and 23.
On the same counts, the results for `C#Cc1nc(C(=O)N(c2ccc(-c3cnco3)cc2)C(C(=O)NC(C)(C)C)C2=CCCOC2)cs1` (stereo not given) are 6200 nM, 415 nM and 15.
In the case of `C#Cc1nc(C(=O)N(c2ccc(-c3cnco3)cc2)C(C(=O)NC(C)(C)C)c2csc3ccccc23)cs1` (stereo not given), the IC50 in the experiment with HT-1080 [1] was 3050 nM; with HT-1080 [5] it was 70 nM.
Turning to `C#Cc1nc(C(=O)N(c2ccc(-c3cnco3)cc2)C(C(=O)NC(C)(C)C)c2cccs2)cs1` (stereo not given), the values for the half-maximal inhibitory concentration (IC50) with HT-1080 [1] and in the experiment on HT-1080 [5] were 6790 nM and 341 nM, respectively. Besides, the “Ratio IC50” value in experiment [4] was found to be 19.9.
Consider `O=C(NCCc1ccccc1)C(c1csc2ccccc12)N(C(=O)c1ccc([N+](=O)[O-])o1)c1ccc(-c2cnco2)cc1` (stereo not given), for which the IC50 in the experiment on HT-1080 [5] is over 5000 nM.
`C#Cc1nc(C(=O)N(c2ccc(-n3cccn3)cc2)C(C(=O)NC(C)(C)C)c2csc3ccccc23)cs1` (stereo not given): the IC50 worked out at 6830 nM in the experiment on HT-1080 [1] and 239 nM in the experiment on HT-1080 [5]. Moreover, the “Ratio IC50” value in experiment [4] worked out at 29.
On the same counts, the results for `C#Cc1nc(C(=O)N(c2ccc(-c3cnco3)cc2)C(C(=O)NC(C)(C)C)c2cc[nH]n2)cs1` (stereo not given) are 7160 nM, 375 nM and 19.
Taken in the same sequence, the figures for `C=CC(=O)N(c1ccc(-c2cnco2)cc1)C(C(=O)NCCc1ccccc1)c1csc2ccccc12` (stereo not given) were 3750 nM, 64 nM and 58.
Taken in the same sequence, the figures for `C#CC(=O)N(c1ccc(-c2cnco2)cc1)C(C(=O)NCCc1ccccc1)c1csc2ccccc12` (stereo not given) were 4750 nM, 425 nM and 11.
Turning to `O=C(NCCc1ccccc1)C(c1csc2ccccc12)N(C(=O)c1ccc([N+](=O)[O-])s1)c1ccc(-c2cnco2)cc1` (stereo not given), the 50% inhibitory concentration (IC50) in the experiment with HT-1080 [5] was over 5000 nM.
Turning to `C#Cc1nc(C(=O)N(c2ccc(-c3cnco3)cc2)C(C(=O)NC2CCCCC2)c2csc3ccccc23)cs1` (stereo not given), the IC50 in the experiment on HT-1080 [1] was 3870 nM; with HT-1080 [5], 17 nM. Also, the “Ratio IC50” value in experiment [4] turned out to be 228.
Taken in the same sequence, the figures for `C#Cc1nc(C(=O)N(c2ccc(-c3cnco3)cc2)C(C(=O)NC(C)(C)C)c2cncs2)cs1` (stereo not given) were 9430 nM, 500 nM and 17.
With `C#Cc1nc(C(=O)N(c2ccc(-n3cncn3)cc2)C(C(=O)NC(C)(C)C)c2csc3ccccc23)cs1` (stereo not given), the figures for the IC50 in the experiment with HT-1080 [1] and in the experiment with HT-1080 [5] were 4230 nM and 356 nM, respectively. Besides, the “Ratio IC50” value in experiment [4] is on record as 12.
Taken in the same sequence, the figures for `C#Cc1nc(C(=O)N(c2ccc(C(F)(F)F)cc2)C(C(=O)NC(C)(C)C)c2csc3ccccc23)cs1` (stereo not given) were 8410 nM, 27 nM and 311.
Regarding `C#Cc1nc(C(=O)N(c2ccc(-c3cnco3)cc2)C(C(=O)NC(C)(C)C)C2CCCCC2)cs1` (stereo not given), the figures for the IC50 with HT-1080 [1] and in the experiment on HT-1080 [5] were 8160 nM and 354 nM, respectively. The “Ratio IC50” value in experiment [4] is 23.
On the same counts, the results for `C#Cc1nc(C(=O)N(c2ccc(-c3cnco3)cc2)C(C(=O)NC(C)(C)C)c2cccc3ccccc23)cs1` (stereo not given) are 8650 nM, 22 nM and 393.
For `COC(=O)c1ccc([C@H]2c3[nH]c4ccccc4c3C[C@H](C(=O)OC)N2C(=O)CCl)cc1`, the result in the experiment on HT-1080 [10] and in the experiment with HT-1080 [11] was Active. Also, the Kd in experiment [6] was determined as 43.7 nM.
`C#Cc1nc(C(=O)N(c2ccc(-c3cnco3)cc2)C(C(=O)NC(C)(C)C)c2ccsc2)cs1` (stereo not given): the IC50 is 6340 nM in the experiment on HT-1080 [1] and 207 nM in the experiment on HT-1080 [5]. Further, the “Ratio IC50” value in experiment [4] is recorded as 30.6.
